Biological target: T1, CYP153A33 (Marinobacter nauticus, UniProt A1TY82)
T1 construct: gene Maqu_0600; co-expressed with P. putida CamA/CamB and E. coli FadL in E. coli BW25113(DE3) delta-fadD; with Putidaredoxin (Pseudomonas putida); Putidaredoxin reductase CamA (Pseudomonas putida)
T1 sequence (A1TY82 1-470): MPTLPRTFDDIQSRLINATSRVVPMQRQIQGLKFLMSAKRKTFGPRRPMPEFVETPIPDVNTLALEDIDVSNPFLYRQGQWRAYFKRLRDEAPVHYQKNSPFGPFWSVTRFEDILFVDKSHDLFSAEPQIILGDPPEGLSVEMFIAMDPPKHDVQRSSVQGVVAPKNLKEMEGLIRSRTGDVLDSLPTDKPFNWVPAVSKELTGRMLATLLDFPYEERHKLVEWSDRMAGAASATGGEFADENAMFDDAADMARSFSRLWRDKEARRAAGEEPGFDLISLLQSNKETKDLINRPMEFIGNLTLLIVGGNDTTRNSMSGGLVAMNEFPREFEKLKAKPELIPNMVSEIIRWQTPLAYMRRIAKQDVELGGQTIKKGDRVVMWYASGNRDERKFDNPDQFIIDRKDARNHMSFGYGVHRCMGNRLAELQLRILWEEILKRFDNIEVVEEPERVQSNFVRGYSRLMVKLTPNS
Assay: whole-cell biotransformation, GC analysis of products
Type: cell-based
Conditions: 10 mM substrate, pH 7.0, 30 °C, resting E. coli cells OD600 30 with 1% glucose, CamA/CamB and FadL co-expressed; product alpha,omega-dodecanediol

CCCCCCCCCCCCO [A, 1-dodecanol]
whole-cell biotransformation, GC analysis of products: CYP153A33-encoding gene was co-expressed with CamAB redox proteins for the whole-cell biotransformation of 1-dodecanol

From article PMC8764613, “Engineering of CYP153A33 With Enhanced Ratio of Hydroxylation to Overoxidation Activity in Whole-Cell Biotransformation of Medium-Chain 1-Alkanols” (Frontiers in Bioengineering and Biotechnology, 2022)
